Source: patent publication US9321760B2 (Merck Patent GmbH, priority 2011, dated 2016)

molecular target: P70S6K (T412E mutant) (Homo sapiens (Human), UniProt P23443, T412E); assay: P70S6K enzyme assay; format: biochemical; conditions: 3 nM P70S6K T412E mutant, 24 μM ATP, 1 μM FITC-AHA-AKRRRLSSLRA-OH substrate peptide, 90 min at 25° C.
Experimental: The IC50 values reported for the compounds in the Experimental section were derived from the following protocol for the p70S6K enzyme assay.
P70S6K inhibitor compounds were diluted and plated in 96 well plates. A reaction mixture including the following components was then added to the compound plate to initiate the enzyme reaction; P70S6K (3 nM, T412E mutant, Millipore) was mixed with 24 μM ATP in an assay buffer containing 100 mM Hepes (pH 7.5), 5 mM MgCl2, 1 mM DTT, 0.015% Brij and 1 μM of the substrate peptide FITC-AHA-AKRRRLSSLRA-OH (derived from the S6 ribosomal protein sequence, FITC=fluorescein isothiocyanate, AHA=6-aminohexanoic acid). The reaction was incubated for 90 min at 25° C., before the addition of 10 mM EDTA to stop the reaction. The proportion of substrate and product (phosphorylated) peptide was analysed on a Caliper Life Sciences Lab Chip 3000, using a pressure of −1.4 psi, and upstream and downstream voltages of −3000 and −700 respectively. Product peaks were resolved before substrate peaks on the resulting chromatograms.

P70S6K (T412E mutant), sequence (P23443 whole entry T412E): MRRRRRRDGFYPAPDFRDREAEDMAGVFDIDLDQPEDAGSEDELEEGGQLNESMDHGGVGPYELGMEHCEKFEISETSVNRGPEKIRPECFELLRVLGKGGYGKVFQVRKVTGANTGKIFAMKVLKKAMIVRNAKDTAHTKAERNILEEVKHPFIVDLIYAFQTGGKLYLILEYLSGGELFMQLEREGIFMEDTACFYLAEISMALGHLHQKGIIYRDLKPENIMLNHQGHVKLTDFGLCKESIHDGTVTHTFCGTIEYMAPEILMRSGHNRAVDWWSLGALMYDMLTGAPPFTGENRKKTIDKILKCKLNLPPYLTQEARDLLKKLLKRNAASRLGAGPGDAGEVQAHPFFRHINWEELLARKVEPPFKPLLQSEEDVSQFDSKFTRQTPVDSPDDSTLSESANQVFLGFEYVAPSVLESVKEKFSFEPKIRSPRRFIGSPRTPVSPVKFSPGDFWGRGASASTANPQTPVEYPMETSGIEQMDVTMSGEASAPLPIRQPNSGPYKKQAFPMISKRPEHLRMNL

| SMILES | IC50 [nM] |
| --- | --- |
| NC(=O)c1c(N)ncnc1N1CCC(N)(CNC(=O)c2ccc(F)cc2F)C1 (stereo not drawn) [Example 197, 4-Amino-6-{3-amino-3-[(2,4-difluoro-benzoylamino)-methyl]-pyrrolidin-1-yl}-pyrimidine-5-carboxamide] | 530 |
| Nc1ncnc(N2CCC(N)(CNC(=O)c3ccc(F)cc3F)C2)c1-c1ccc(F)cc1 (stereo not drawn) [Example 198, N-{3-Amino-1-[6-amino-5-(4-fluoro-phenyl)-pyrimidin-4-yl]-pyrrolidin-3-ylmethyl}-2,4-difluoro-benzamide] | 4.8 |
| Nc1ncnc(N2CCC(N)(CNC(=O)c3ccc(F)cc3F)C2)c1-c1ccc(Oc2ccccc2)cc1 (stereo not drawn) [Example 200, N-{3-Amino-1-[6-amino-5-(4-phenoxy-phenyl)-pyrimidin-4-yl]-pyrrolidin-3-ylmethyl}-2,4-difluoro-benzamide] | 120 |
| CCc1c(N)ncnc1N1CCN([C@@H](CN)c2ccc(Cl)cc2)CC1 [Example 180, 6-{4-[(R)-2-Amino-1-(4-chloro-phenyl)-ethyl]-piperazin-1-yl}-5-ethyl-pyrimidin-4-ylamine] | 190 |
| NCC(c1ccc(C(F)(F)F)cc1)N1CCN(c2ncnc(N)c2Cl)CC1 (stereo not drawn) [Example 80, 6-{4-[2-Amino-1-(4-trifluoromethyl-phenyl)-ethyl]-piperazin-1-yl}-5-chloro-pyrimidin-4-ylamine] | 79 |
| CC[C@H](NC(=O)C1(N)CCN(c2ncnc(N)c2C(N)=O)CC1)c1ccc(Cl)cc1 [Example 245, 4-Amino-6-{4-amino-4-[(S)-1-(4-chloro-phenyl)-propylcarbamoyl]-piperidin-1-yl}-pyrimidine-5-carboxylic acid amide] | 2400 |
| Nc1ncnc(N2CCN(C(CN3CCCC3)c3ccc(C(F)(F)F)cc3)CC2)c1-c1ccc(F)cc1 (stereo not drawn) [Example 10, 5-(4-fluorophenyl)-6-(4-(2-(pyrrolidin-1-yl)-1-(4-(trifluoromethyl)-phenyl)-ethyl)-piperazin-1-yl)-pyrimidin-4-amine] | 31 |
| C[C@H](NC(=O)C1(N)CCN(c2ncnc(N)c2C#N)CC1)c1ccc(Cl)cc1 [Example 218, 4-Amino-1-(6-amino-5-cyano-pyrimidin-4-yl)-piperidine-4-carboxylic acid [(S)-1-(4-chloro-phenyl)-ethyl]-amide] | 200 |
| COc1ccc([C@H](CCO)NC(=O)C2(N)CCN(c3ncnc(N)c3Cl)CC2)cc1 [Example 238, 4-Amino-1-(6-amino-5-chloro-pyrimidin-4-yl)-piperidine-4-carboxylic acid [(S)-3-hydroxy-1-(4-methoxy-phenyl)-propyl]-amide] | 380 |
| NC[C@H](c1ccc(C(F)(F)F)cc1)C1CCN(c2ncnc(N)c2-c2cn[nH]c2)CC1 (single isomer, unassigned) [Example 56] | 22 |
| Nc1ncnc(N2CCC(N)(CNC(=O)c3ccc(F)cc3F)C2)c1Br (stereo not drawn) [Example 195, N-[3-Amino-1-(6-amino-5-bromo-pyrimidin-4-yl)-pyrrolidin-3-ylmethyl]-2,4-difluoro-benzamide] | 3.3 |
| Nc1cc(N2CCN(C(CN3CCCCC3)c3cccc(F)c3)CC2)ncn1 (stereo not drawn) [Example 76, 6-{4-[1-(3-fluorophenyl)-2-piperidin-1-yl-ethyl]-piperazin-1-yl}-pyrimidin-4-ylamine] | > 1000 |
| C=Cc1c(N)ncnc1N1CCC(C(O)c2ccc(F)cc2)CC1 (stereo not drawn) [Example 141, 1-6-amino-5-(vinylpyrimidin-4-yl)piperidin-4-yl-4-(fluorophenyl)methanol] | 1000 |
| NC(=O)c1c(N)ncnc1N1CCC(N)(C(=O)N[C@@H](CCO)c2ccc(Cl)cc2)CC1 [Example 247] | 3600 |
| Nc1ncnc(N2CCC(N)(CNC(=O)c3ccc(F)cc3F)C2)c1-c1ccc(N2CCNCC2)nc1 (stereo not drawn) [Example 206, N-{3-Amino-1-[6-amino-5-(6-piperazin-1-yl-pyridin-3-yl)-pyrimidin-4-yl]-pyrrolidin-3-ylmethyl}-2,4-difluoro-benzamide] | 1000 |
| NC(=O)c1c(N)ncnc1N1CCC(N)(C(=O)N[C@@H](CCO)c2ccc(C(F)(F)F)cc2)CC1 [Example 233, 4-Amino-6-{4-amino-4-[(S)-3-hydroxy-1-(4-trifluoromethyl-phenyl)-propylcarbamoyl]-piperidin-1-yl}-pyrimidine-5-carboxylic acid amide] | 41000 |
| COc1ccc(-c2c(N)ncnc2N2CCC(N)(CNC(=O)c3ccc(F)cc3F)C2)cn1 (stereo not drawn) [Example 201, N-{3-Amino-1-[6-amino-5-(6-methoxy-pyridin-3-yl)-pyrimidin-4-yl]-pyrrolidin-3-ylmethyl}-2,4-difluoro-benzamide] | 9.5 |

Next, values leading:

| IC50 [nM] | SMILES |
| --- | --- |
| 12 | CCn1cc(-c2c(N)ncnc2N2CCN(C(CN)c3ccc(C(F)(F)F)cc3)CC2)cn1 (stereo not drawn) [Example 39, 6-(4-(2-amino-1-(4-(trifluoromethyl)phenyl)ethyl)piperazin-1-yl)-5-(1-ethyl-1H-pyrazol-4-yl)pyrimidin-4-amine] |
| 33 | CC(c1ccc(Cl)cc1O)N1CCN(c2ncnc(N)c2-c2ccc(F)cc2)CC1 (stereo not drawn) [Example 61, 2-(1-(4-(6-amino-5-(4-fluorophenyl)pyrimidin-4-yl)piperazin-1-yl)ethyl)-5-chlorophenol] |
| 3800 | Nc1ncnc(N2CCN(C(CN3CCC3)c3ccc(F)c(C(F)(F)F)c3)CC2)c1-c1cn[nH]c1 (stereo not drawn) [Example 101, 6-{4-[2-Azetidin-1-yl-1-(4-fluoro-3-trifluoromethyl-phenyl)-ethyl]-piperazin-1-yl}-5-(1H-pyrazol-4-yl)-pyrimidin-4-ylamine] |
| 140 | N#CC(c1ccc(C(F)(F)F)nc1)N1CCN(c2ncnc(N)c2-c2ccc(F)cc2)CC1 (stereo not drawn) [Example 189, {4-[6-Amino-5-(4-fluoro-phenyl)-pyrimidin-4-yl]-piperazin-1-yl}-(6-trifluoromethyl-pyridin-3-yl)-acetonitrile] |
| 6 | NCC(c1ccc(Cl)c(Cl)c1)N1CCN(c2ncnc(N)c2-c2ccc(F)cc2)CC1 (stereo not drawn) [Example 157, 6-{4-[2-Amino-1-(3,4-dichloro-phenyl)-ethyl]-piperazin-1-yl}-5-(4-fluoro-phenyl)-pyrimidin-4-ylamine] |
| 110 | N#CC(c1ccc(Cl)nc1)N1CCN(c2ncnc(N)c2-c2ccc(F)cc2)CC1 (stereo not drawn) [Example 173, {4-[6-Amino-5-(4-fluoro-phenyl)-pyrimidin-4-yl]-piperazin-1-yl}-(6-chloro-pyridin-3-yl)-acetonitrile] |
| 360 | Nc1ncnc(N2CCN(C(CN3CCC3)c3ccc4c(c3)CCCC4)CC2)c1-c1ccc(F)cc1 (stereo not drawn) [Example 123, 6-{4-[2-Azetidin-1-yl-1-(5,6,7,8-tetrahydro-naphthalen-2-yl)-ethyl]-piperazin-1-yl}-5-(4-fluoro-phenyl)-pyrimidin-4-ylamine] |
| 2800 | N#Cc1ccc(C(CN2CCC2)N2CCN(c3ncnc(N)c3-c3cn[nH]c3)CC2)cc1 (single isomer, unassigned) [Example 85, 4-(1-{4-[6-Amino-5-(1H-pyrazol-4-yl)-pyrimidin-4-yl]-piperazin-1-yl}-2-azetidin-1-yl-ethyl)-benzonitrile] |
| 140 | Nc1ncnc(N2CCN(C(CN3CCC3)c3ccc4[nH]c(=O)sc4c3)CC2)c1-c1ccc(F)cc1 (stereo not drawn) [Example 118, 6-(1-{4-[6-Amino-5-(4-fluoro-phenyl)-pyrimidin-4-yl]-piperazin-1-yl}-2-azetidin-1-yl-ethyl)-3H-benzothiazol-2-one] |
| 1.7 | CN(C)C[C@@H](c1ccc(C(F)(F)F)cc1)N1CCN(c2ncnc(N)c2-c2ccc(F)cc2)CC1 [Example 17, (R)-6-(4-(2-(dimethylamino)-1-(4-(trifluoromethyl)phenyl)ethyl)piperazin-1-yl)-5-(4-fluorophenyl)pyrimidin-4-amine] |
| 920 | Nc1ncnc(N2CCN([C@@H](CN3CCC3)c3cccc(F)c3)CC2)c1-c1ccc(F)cc1 [Example 103, 6-{4-[(R)-2-Azetidin-1-yl-1-(3-fluoro-phenyl)-ethyl]-piperazin-1-yl}-5-(4-fluoro-phenyl)-pyrimidin-4-ylamine] |
| 29 | Nc1ncnc(N2CCN(C(CN3CCCC3)c3ccc(F)cc3)CC2)c1-c1ccc(F)cc1 (stereo in doubt) [Example 82, (R)5-(4-Fluorophenyl)-6{4-[1-(4-fluorophenyl)-2-pyrrolidin-1-yl-ethyl]-piperazin-1-yl}-pyrimidin-4-ylamine] |
| 590 | N#CC(c1ccc(F)c(Cl)c1)N1CCN(c2ncnc(N)c2-c2ccc(F)cc2)CC1 (stereo not drawn) [Example 160, {4-[6-Amino-5-(4-fluoro-phenyl)-pyrimidin-4-yl]-piperazin-1-yl}-(3-chloro-4-fluoro-phenyl)-acetonitrile] |
| > 1000 | CS(=O)(=O)c1ccc(C(C#N)N2CCN(c3ncnc(N)c3-c3cn[nH]c3)CC2)cc1 (stereo not drawn) [Example 184, 2-(4-(6-amino-5-(1H-pyrazol-4-yl)pyrimidin-4-yl)piperazin-1-yl)-2-(4-(methylsulfonyl)phenyl)acetonitrile] |
| 13 | CCc1c(N)ncnc1N1CCN([C@H](CN)c2ccc(Cl)cc2)CC1 [Example 179, 6-{4-[(S)-2-Amino-1-(4-chloro-phenyl)-ethyl]-piperazin-1-yl}-5-ethyl-pyrimidin-4-ylamine] |
| 640 | COc1ccc([C@@H](CN2CCC2)N2CCN(c3ncnc(N)c3-c3ccc(F)cc3)CC2)cc1F [Example 105, 6-{4-[(S)-2-Azetidin-1-yl-1-(3-fluoro-4-methoxy-phenyl)-ethyl]-piperazin-1-yl}-5-(4-fluoro-phenyl)-pyrimidin-4-ylamine] |
